Entries after “also recorded” stand apart in the source; their conditions may differ. Residues, ends and D or L forms follow the SMILES beside them. {Stearyl} = n-C18 stearyl group added with a stearyl phosphoramidite
Experiment: Reverse phase HPLC of steroids linked to a 220 base pair oligonucleotide (Agilent AdvanceBio Oligonucleotide column)
Format: physicochemical
Conditions: 220 base pair conjugates, acetonitrile/10 mM ammonium acetate gradient
Experimental: HPLC purified 20 base pair single stranded oligomers operatively linked to alkyl or steroid ligands were transformed into a double stranded 220 base pair gene via polymerase chain reaction (PCR). The oligomers operatively linked to alkyl or steroid ligands and a 20 base pair reverse oligomer (1 uM) were used as PCR primers in a 100 uL reaction with 10 ng of double stranded 220 base pair gene template with 2× Fusion Flash High-Fidelity PCR Master Mix (ThermoFisher F548S). Thermocycling was performed at 98 C.° for 10 s, followed by 10 cycles of 98 C°, 1 s, 55 C°, 5 s, 72 C°, 10 s then followed by an additional protocol of 98 C.° for 10 s followed by 15 cycles of 98 C°, 1 s, 50 C°, 5 s, 72 C°, 10 s. PCR products of 220 base pair were confirmed via gel electrophoresis, purified with the QIAquick PCR Purification Kit (Qiagen) and DNA concentration was quantified via nanodrop A260 measurements.
Compounds 18-24, prepared as described in Example 10 from the analogous 20 base pair oligomers were run on a reverse phase HPLC column, using an Agilent AdvanceBio Oligonucleotide column and acetonitrile/ammonium acetate gradient. […] Without wishing to be bound by theory, inclusion of appropriate standard compounds may provide useful surrogates of absolute values of log D. It should be also noted that chromLogD and Chrom20LogD may be determined by extensions of the above experiment.

Row | Compound | resolution / elution by reversed phase HPLC
1 | acetate | eluting in the void volume

Experiment: Gel mobility on standard agarose gel without vesicles
Format: physicochemical
Conditions: ligand attached to 5′ end of DNA; 1.5% agarose, no vesicles; FIG. 1
Experimental: Low melt agarose gels (standard 1× TBE, 1.5% agarose), without vesicles were prepared by conventional methods (Molecular Cloning: a Laboratory Manual, T. Maniatis, E. F. Fritsch & J. Sambrook (1982)).
After the gels have solidified, samples are loaded, run at 100 volts, stained with ethidium bromide and photographed by standard methods (Molecular Cloning; Maniatis et al.; Cold Spring Harbor press, 1982).

Row | Compound | mobility on standard agarose gel
2 | Compound 1: stearyl (n-C18H37) group attached to 5′ end of DNA oligonucleotide X (SEQ. ID. No. 1) (DNA GCTCGTCGCATTCGGCACGC; DNA, 5' {Stearyl}, backbone and methylation of C not given here; further chemistry not fully specified) | modestly retarded

Experiment: Gel mobility on agarose gel containing 0.9% CTAB/SOS vesicles
Format: physicochemical
Conditions: ligand attached to 5′ end of DNA; 1.5% agarose, 0.9% (w/v) CTAB/SOS vesicles; relative to reference gels lacking vesicles; FIG. 2
Experimental: Vesicles are prepared essentially as described by Pascoe et al., Electrophoresis 2003, 24: 4227-4240. Briefly, 0.45 gm of CTAB/SOS (CTAB=hexadecyltrimethylammonium bromide, Sigma catalogue #H9151; SOS=sodium octyl sulfate. Sigma catalogue #O4003)) at a ratio of 3:7 is dissolved in 1× TBE [Trisma-borate-EDTA electrophoresis buffer, Maniatis et al., p. 454] and heated to 50° C. in a water bath to assure dissolution. The solution is cooled overnight to room temperature and then filtered through a 0.2 micron filter. Vesicles prepared in this manner are reported to be stable for multiple days at room temperature.
Low melting agarose (0.75 gm) is dissolved in 25 mL 1× TBE and placed in a water bath at 50° C. along with a separate tube of vesicles. After equilibrium is reached, the tubes are mixed in a preheated flask, gently swirled and poured into a standard horizontal mini-gel apparatus to provide a vesicle agarose gel ((standard 1× TBE, 1.5% agarose, 0.9%). […]
FAM is 5′-6-FAM (Fluorescein). The 6-FAM moiety is comprised of a single isomer derivative of fluorescein and is the most commonly used fluorescent dye attachment for oligonucleotides and is compatible with most fluorescence detection equipment. It becomes protonated and has decreased fluorescence below pH 7; it is typically used in the pH range 7.5-8.5. […]

Row | Compound | mobility on agarose gel with vesicles
3 | Compound 1: stearyl (n-C18H37) group attached to 5′ end of DNA oligonucleotide X (SEQ. ID. No. 1) (DNA GCTCGTCGCATTCGGCACGC; DNA, 5' {Stearyl}, backbone and methylation of C not given here; further chemistry not fully specified) | greatly retard the mobility; also recorded: retarded

Experiment: eLogD by shake flask method in aqueous buffer/octanol mixture
Conditions: linear peptides, N terminal acetylated and C terminal amide; pH 7.4, octanol-water
Text: “eLogD,” as used herein, refers to a determination of LogD by shake flask method in aqueous buffer/octanol mixture.
“LogD(pH),” as used herein, refers to a distribution of a compound between aqueous buffer and octanol at a given pH. Unless otherwise stated, the pH is assumed to be 7.4 and be written as LogD.

Row | Compound | eLogD (7.4)
4 | CC(=O)N[C@@H](C)C(=O)N[C@@H](Cc1ccc(O)cc1)C(=O)N[C@@H](CC(C)C)C(N)=O [AYL] (Ac-Ala-Tyr-Leu-NH2) | −0.06
5 | CC[C@H](C)[C@H](NC(=O)[C@H](CCC(=O)O)NC(C)=O)C(=O)N[C@@H](Cc1ccccc1)C(N)=O [EIF (D718)] (Ac-Glu-Ile-Phe-NH2) | −2.30
6 | CC[C@H](C)[C@H](NC(C)=O)C(=O)N[C@@H](Cc1ccccc1)C(=O)N[C@@H](C)C(N)=O [IFA] (Ac-Ile-Phe-Ala-NH2) | 0.46
7 | CC[C@H](C)[C@H](NC(C)=O)C(=O)N[C@@H](CCSC)C(=O)N[C@@H](Cc1ccccc1)C(N)=O [IMF] (Ac-Ile-Met-Phe-NH2) | 1.25
8 | CC(=O)N[C@@H](CCCNC(=N)N)C(=O)N[C@@H](Cc1ccccc1)C(=O)N[C@@H](CC(C)C)C(N)=O [RFL] (Ac-Arg-Phe-Leu-NH2) | −1.12
9 | CC[C@H](C)[C@H](NC(=O)[C@H](CC(C)C)NC(=O)[C@H](CO)NC(C)=O)C(N)=O [SLI] (Ac-Ser-Leu-Ile-NH2) | −0.06
10 | CC(=O)N[C@@H](Cc1c[nH]c2ccccc12)C(=O)NCC(=O)NCC(N)=O [WGG] (Ac-Trp-Gly-Gly-NH2) | −0.80
11 | Ac-ALLGF-NH2 [ALLGF] | 1.05
12 | Ac-YTGFL-NH2 [YTGFL] | 0.57
